Experimental findings from patent publication US20180020662A1, “Substituted 1-cycloalkyl-2-oxotetrahydroquinolin-6-ylsulfonamides or salts thereof and use thereof to increase stress tolerance in plants” (BAYER CROPSCIENCE AKTIENGESELLSCHAFT, priority 2015, published 2018) are described below.

Molecules are shown by their SMILES.

This assay concerns the target T1, phosphatase ABI1 via the co-regulator RCAR11/PYR1 (Arabidopsis thaliana, UniProt O49686+P49597).
T1 sequence (O49686 1-191): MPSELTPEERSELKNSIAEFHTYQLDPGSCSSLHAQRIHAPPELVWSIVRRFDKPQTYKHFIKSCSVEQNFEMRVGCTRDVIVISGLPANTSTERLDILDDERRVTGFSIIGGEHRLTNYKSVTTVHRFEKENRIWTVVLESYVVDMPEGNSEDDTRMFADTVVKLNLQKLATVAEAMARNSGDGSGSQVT
T1 sequence (P49597 1-434): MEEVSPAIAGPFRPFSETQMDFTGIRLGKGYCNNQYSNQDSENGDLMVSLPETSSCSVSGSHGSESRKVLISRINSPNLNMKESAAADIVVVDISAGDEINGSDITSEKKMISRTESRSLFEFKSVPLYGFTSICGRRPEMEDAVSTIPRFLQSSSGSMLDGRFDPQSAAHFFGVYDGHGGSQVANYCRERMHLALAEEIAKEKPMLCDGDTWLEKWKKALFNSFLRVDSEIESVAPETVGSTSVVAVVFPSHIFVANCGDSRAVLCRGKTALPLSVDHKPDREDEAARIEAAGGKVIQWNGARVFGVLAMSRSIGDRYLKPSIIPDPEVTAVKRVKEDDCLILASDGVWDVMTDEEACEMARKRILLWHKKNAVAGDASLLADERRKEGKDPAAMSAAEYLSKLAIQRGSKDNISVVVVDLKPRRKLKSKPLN
Kind of assay: In vitro assay: inhibition of ABI1 dephosphorylation of 4-methylumbelliferyl phosphate (MUP), fluorescence. It counts as biochemical. The note with it: concentration of 5 mM of the substance in DMSO and water, 35° C., 20 minutes. An excerpt:
Effects of the phytohormone abscisic acid (ABA) on the behavior of plants under abiotic stress and the mechanism of action of ABA are described in the literature (cf. Abrams et al., WO97/23441, Park et al. Science, 2009, 324, 1068; Grill et al. Science, 2009, 324, 1064; Tanokura et al. Biophysics, 2011, 7, 123; Schroeder et al. Plant J. 2010, 61, 290). Therefore, it is possible with the aid of a suitable in vitro test system to derive a correlation between the action of ABA and the stress response of a plant under abiotic stress. In the event of water deficiency (drought stress), plants form the phytohormone abscisic acid (ABA). This binds, along with a co-regulator (Regulatory Component of ABA-Receptor=RCAR according to Grill et al. Science, 2009, 324, 1064 or PYR/PYL according to Cutler et al. Science, 2009, 324, 1068), to a phosphatase (e.g. ABI1, a type 2C protein phosphatase, also abbreviated to PP2C) and inhibits its activity. As a result, a “downstream” kinase (e.g. SnRK2) is no longer dephosphorylated. This kinase, which is thus active, via phosphorylation of transcription factors (e.g. AREB/ABF, cf. Yoshida et al Plant J. 2010, 61, 672), switches on a genetic protection program to increase drought stress tolerance. The assay described hereinafter utilizes the inhibition of the phosphatase ABI1 via the co-regulator RCAR11/PYR1 aus Arabidopsis thaliana. For the determination of activity, the dephosphorylation of 4-methylumbelliferyl phosphate (MUP) was measured at 460 nm. The in vitro assay was conducted in Greiner 384-well PS microplates F-well, using two controls: a) 0.5% dimethyl sulfoxide (DMSO) and b) 5 μM abscisic acid (ABA). The assay described here was generally conducted with substance concentrations of the appropriate chemical test substances in a concentration range of 0.1 μM to 100 μM in a solution of DMSO and water. The substance solution thus obtained, if necessary, was stirred with esterase from porcine liver (EC 3.1.1.1) at room temperature for 3 h and centrifuged at 4000 rpm for 30 min. A total volume of 45 μl was introduced into each cavity of the microplate, having the following composition: • 1) 5 μl of substance solution, i.e. a) DMSO 5% or b) abscisic acid solution or c) the corresponding example compound of the general formula (I) dissolved in 5% DMSO. • 2) 20 μl of enzyme buffer mix, composed of a) 40% by vol. of enzyme buffer (10 ml contain equal proportions by volume of 500 mM Tris-HCl pH 8, 500 mM NaCl, 3.33 mM MnCl2, 40 mM dithiothreitol (DTT)), b) 4% by vol. of ABI1 dilution (protein stock solution was diluted so as to give, after addition, a final concentration in the assay of 0.15 μg ABI1/well), c) 4% by vol. of RCAR11 dilution (enzyme stock was diluted so as to give, on addition of the dilution to the enzyme buffer mix, a final concentration in the assay of 0.30 μg enzyme/well), d) 5% by vol. of Tween20 (1%), e) 47% by vol. H2O bi-dist. • 3) 20 μl of substrate mix, composed of a) 10% by vol. of 500 mM Tris-HCl pH 8, b) 10% by vol. of 500 mM NaCl, c) 10% by vol. of 3.33 mM MnCl2, d) 5% by vol. of 25 mM MUP, 5% by vol. of Tween20 (1%), 60% by vol. of H2O bi-dist.
Enzyme buffer mix and substrate mix were made up 5 minutes prior to the addition and warmed to a temperature of 35° C. On completion of pipetting of all the solutions and on completion of mixing, the plate was incubated at 35° C. for 20 minutes. Finally, a relative fluorescence measurement was made at 35° C. with a BMG Labtech “POLARstar Optima” microplate reader using a 340/10 nm excitation filter and a 460 nm emission filter. The efficacy of the compounds of the general formula (I) is reported in the table which follows using abscisic acid […] as comparative substance (no. 38) according to the following classification: ++++(inhibition ≧90%), +++(90% >inhibition ≧70%), ++(70% >inhibition ≧50%), +(50% >inhibition ≧30%). […]
`Cc1ccc(CS(=O)(=O)Nc2ccc3c(c2)CCC(=O)N3C2(C)CC2)cc1` [A1-152]: the ABI1 inhibition entry is “++++ (inhibition ≧90%)”.
On to `CC1(N2C(=O)CCc3cc(NS(=O)(=O)Cc4ccc(F)cc4)ccc32)CC1` [A1-158], for which the ABI1 inhibition entry is given as “++++ (inhibition ≧90%)”.
Regarding `Cc1ccc(CS(=O)(=O)Nc2ccc3c(c2)CCC(=O)N3C2(C3CC3)CC2)cc1` [A3-152, N-{1-[1,1′-bi(cyclopropyl)-1-yl]-2-oxo-1,2,3,4-tetrahydroquinolin-6-yl}-1-(4-methylphenyl)methanesulfonamide], the ABI1 inhibition entry is recorded as “++++ (inhibition ≧90%)”.
For the compound `Cc1cccc(CS(=O)(=O)Nc2ccc3c(c2)CCC(=O)N3C2(C3CC3)CC2)c1` [A3-153], the ABI1 inhibition entry is listed as “+++ (90% >inhibition ≧70%)”.
`O=C1CCc2cc(NS(=O)(=O)Cc3cccc(Cl)c3)ccc2N1C1(C2CC2)CC1` [A3-166]: the ABI1 inhibition entry is “+++ (90% >inhibition ≧70%)”.
Consider `CCc1ccc(CS(=O)(=O)Nc2ccc3c(c2)CCC(=O)N3C2(C3CC3)CC2)cc1` [A3-325], for which the ABI1 inhibition entry is recorded as “++++ (inhibition ≧90%)”.
For the compound `Cc1ccc(CS(=O)(=O)Nc2ccc3c(c2)CCC(=O)N3C2CC2C2CC2)cc1` (centres unmarked) [A16-152, N-{1-[1,1′-bi(cyclopropyl)-2-yl]-2-oxo-1,2,3,4-tetrahydroquinolin-6-yl}-1-(4-methylphenyl)methanesulfonamide], the ABI1 inhibition result is listed as “++++ (inhibition ≧90%)”.
Turning to `O=C1CCc2cc(NS(=O)(=O)Cc3ccc(F)cc3)ccc2N1C1CC1C1CC1` (centres unmarked) [A16-158], the ABI1 inhibition entry is recorded as “+++ (90% >inhibition ≧70%)”.
Then `O=C1CCc2cc(NS(=O)(=O)Cc3cc(F)cc(F)c3)ccc2N1C1CC1C1CC1` (centres unmarked) [A16-164], with “++ (70% >inhibition ≧50%)”; and `O=C1CCc2cc(NS(=O)(=O)Cc3ccc(Cl)cc3)ccc2N1C1CC1C1CC1` (centres unmarked) [A16-165], with “++++ (inhibition ≧90%)”.
Then `CC(C)(C)c1ccc(CS(=O)(=O)Nc2ccc3c(c2)CCC(=O)N3C2CC2C2CC2)cc1` (centres unmarked) [A16-332], with “+++ (90% >inhibition ≧70%)”.
For `Cc1ccc(CS(=O)(=O)Nc2ccc3c(c2)CCC(=O)N3C2CC(C)C2)cc1` (centres unmarked) [A26-152], the ABI1 inhibition result was “++++ (inhibition ≧90%)”.
Then `CC1CC(N2C(=O)CCc3cc(NS(=O)(=O)Cc4cc(F)cc(F)c4)ccc32)C1` (centres unmarked) [A26-164], with “++++ (inhibition ≧90%)”; and `CC1CC(N2C(=O)CCc3cc(NS(=O)(=O)Cc4ccc(Cl)cc4)ccc32)C1` (centres unmarked) [A26-165, 1-(4-Chlorophenyl)-N-[1-(3-methylcyclobutyl)-2-oxo-1,2,3,4-tetrahydroquinolin-6-yl]methanesulfonamide], with “++++ (inhibition ≧90%)”.
As for `CC1CC(N2C(=O)CCc3cc(NS(=O)(=O)Cc4ccc([N+](=O)[O-])cc4)ccc32)C1` (centres unmarked) [A26-175], the ABI1 inhibition result was “++++ (inhibition ≧90%)”.
`CC1CC(N2C(=O)CCc3cc(NS(=O)(=O)Cc4cccc(C#N)c4)ccc32)C1` (centres unmarked) [A26-182]: the ABI1 inhibition entry was “++++ (inhibition ≧90%)”.
`CC1CC(N2C(=O)CCc3cc(NS(=O)(=O)Cc4ccc(C(C)(C)C)cc4)ccc32)C1` (centres unmarked) [A26-332]: the ABI1 inhibition entry is “++++ (inhibition ≧90%)”.
As for `Cc1ccc(S(=O)(=O)Nc2ccc3c(c2)CCC(=O)N3C23CC(C2)C3)cc1` [A30-50], the ABI1 inhibition result was “++ (70% >inhibition ≧50%)”.
`Cc1ccc(CS(=O)(=O)Nc2ccc3c(c2)CCC(=O)N3C23CC(C2)C3)cc1` [A30-152]: the ABI1 inhibition entry is given as “++++ (inhibition ≧90%)”.
`O=C1CCc2cc(NS(=O)(=O)Cc3cccc(F)c3)ccc2N1C12CC(C1)C2` [A30-159]: the ABI1 inhibition result is “+++ (90% >inhibition ≧70%)”.
`O=C1CCc2cc(NS(=O)(=O)Cc3cccc(Cl)c3)ccc2N1C12CC(C1)C2` [A30-166]: the ABI1 inhibition result is given as “++ (70% >inhibition ≧50%)”.
Take `O=C1CCc2cc(NS(=O)(=O)Cc3ccc(C(F)(F)F)cc3)ccc2N1C12CC(C1)C2` [A30-178, N-[1-(Bicyclo[1.1.1]pent-1-yl)-2-oxo-1,2,3,4-tetrahydroquinolin-6-yl]-1-[4-(trifluoromethyl)phenyl]methanesulfonamide]: the ABI1 inhibition result is “++++ (inhibition ≧90%)”.
Turning to `N#Cc1ccc(CS(=O)(=O)Nc2ccc3c(c2)CCC(=O)N3C23CC(C2)C3)cc1` [A30-181], the ABI1 inhibition result was “++++ (inhibition ≧90%)”.
For `O=C1CCc2cc(NS(=O)(=O)Cc3ccc(Cl)cc3)ccc2N1C1CC2(CCC2)C1` [A33-165], the ABI1 inhibition entry was “+++ (90% >inhibition ≧70%)”.
As for `N#Cc1ccc(CS(=O)(=O)Nc2ccc3c(c2)CCC(=O)N3C2CC3(CCC3)C2)cc1` [A33-181, 1-(4-Cyanophenyl)-N-[2-oxo-1-(spiro[3.3]hept-2-yl)-1,2,3,4-tetrahydroquinolin-6-yl]methanesulfonamide], the ABI1 inhibition entry was “+++ (90% >inhibition ≧70%)”.
Take `CC1=CC(=O)CC(C)(C)[C@@]1(O)/C=C/C(C)=C\C(=O)O` [abscisic acid, reference compound]: the ABI1 inhibition result is reported as “++++ (inhibition ≧90%)”.
